Assay results as given in patent US20120121574A1, “ANTIMICROBIAL, ANTIVIRAL, ANTICANCER AND IMMUNOMODULATORY PEPTIDES AND USES THEREFORE” (priority 2010, published 2012).
Where no end group is shown, it is not given here.

Columns and labels:
[1] = test system: K. pneumoniae ATCC 700603 strain; assay: CFU assay against K. pneumoniae; format: cell-based, Klebsiella pneumoniae
S. aureus 29213 strain = assay: CFU assay against S. aureus; format: cell-based, Staphylococcus aureus
Method: (§1) In vitro activity of N10K against S. aureus 29213 strain. The microbicidal activity of N10K peptide against S. aureus has been evaluated by a conventional CFU assay. Cells of S. aureus 29213 have been incubated at 37° C. for 5 hours in the presence of N10K at the concentration of 50, 45 or 40 micrograms/ml, or in distilled water as control growth. After the incubation period, the cell suspensions have been plated on Mueller Hinton agar, then incubated at 37° C. and observed for CFU enumeration after 24 hours.
as §1, with “T11F” for “N10K”, “bactericidal” for “microbicidal”, “40” for “45”, “30” for “40”
In vitro activity of H4L against S. aureus 29213 strain. The bactericidal activity of H4L peptide against S. aureus has been evaluated by a conventional CFU) assay. […]
In vitro activity of MoA VHCDR3 against S. aureus 29213 strain. The microbicidal activity of MoA VHCDR3 peptide against S. aureus has been evaluated by a conventional CFU assay. […]

M. furfur 101 strain = assay: CFU assay against M. furfur; format: cell-based, Malassezia furfur
Method: After the incubation period, the cell suspensions were plated on Sabouraud dextrose agar added with Tween 20 (1%), then incubated at 30° C. and observed for CFU enumeration after 72 hours.
After the incubation period, the cell suspensions have been plated on Sabouraud dextrose agar added with Tween 20 (1%), then incubated at 30° C. and observed for CFU enumeration after 72 hours.

C. albicans CA-6 strain = assay: murine model of systemic candidiasis; format: in vivo, Balb/c mice
Method: CFU recovery from the kidneys of mice was determined 7 and 12 days after fungal infection.
Mice were infected intravenously with the opportunistic fungus C. albicans and treated with mouse VHCDR3 or VLCDR3 (used as a negative control) intraperitoneally 4 hr before (200 micrograms), and 1 (100 micrograms) and 2 (100 micrograms) days after infection. Animal survival and fungal burden in kidneys were evaluated in different groups of mice. […] Error bars, s.e.m.

[2] = test system: E. coli ATCC 25922 strain; assay: CFU assay against E. coli; format: cell-based, Escherichia coli
[3] = test system: peritoneal murine macrophages (PM); assay: in vitro immunomodulatory activity on murine peritoneal macrophages (PM); format: cell-based, mouse
Method: In vitro immunomodulatory activity of MoA VHCDR3 on murine immune cells. FIGS. 47-51 are graphs showing TNF-α and IL-6 production by PM and PMN stimulated with MoA CDRs and mouse MoA VHCDR3 uptake by different cell populations. Cells were cultured in the presence or absence (NS) of human and/or mouse CDRs, lipopolisaccharide (LPS), or negative control peptide (NC) (all 10 micrograms/ml) for 18 hr. Both PM and PMN cell populations were 5×10^6/ml. After incubation, TNF-α and IL-6 levels were evaluated in culture supernatants by specific ELISA assays (* P<0.05 treated vs untreated cells, n=7). In FIG. 51, dendritic cells (DC), PM, PMN, and T cells (all 1×10^6/ml) were incubated for 1 hr in the presence or absence (NS) of biotinylated (b)-MoA VHCDR3 or b-NC (both 10 micrograms/ml). After incubation, permeabilized cells were reacted with FITC-labelled mAb to biotin (b) and analyzed by FACScan flow cytometry. Data are reported as the percentage of positive cells *, P<0.05 (b-VHCDR3 treated vs untreated cells, n=5). Error bars, s.e.m. FIGS. 52A and B show graphs and colored cell staining micrograph of kinetic of VHCDR3 uptake by PM. PM (1×10^6/ml) were incubated for different times with b-VHCDR3 or b-NC (all 10 micrograms/ml). After incubation, permeabilized cells were reacted with FITC-labelled mAb to biotin and analyzed by FACScan flow cytometry. Data are reported as the mean fluorescence intensity (MFI) and percentage of positive cells (FIG. 52A) (* P<0.05 b-VHCDR3-treated vs untreated cells, n=7). Error bars, s.e.m. In selected experiments, cells were incubated for 1 hr as above described, reacted with FITC-labelled mAb to biotin in the presence of Evans' Blue as a counter stain, and subsequently examined under fluorescent light microscopy (FIG. 52B). Note the green fluorescence of b-VHCDR3 treated cells. Original magnification 20×. In FIGS. 53 and 54 is shown the phospho-Akt activation and TNF-α production in PM stimulated with MoA VHCDR3. PM (3×10^6/ml) were stimulated for 1 hr in the presence or absence (NS) of MoA VHCDR3, LPS, an irrelevant control peptide (NC) or a scrambled peptide (SP) (all 10 micrograms/ml). After incubation, cell lysates were subjected to Western blotting. Membranes were incubated with Abs to pAkt and Akt; pAkt was normalized against Akt (FIG. 53)*, P<0.05 (treated vs untreated cells, n=5). […] PM (5×10^6/ml) were stimulated for 18 hr as above described. After incubation, TNF-α level was evaluated in culture supernatants by specific ELISA assays. (FIG. 54)*, P<0.05 (treated vs untreated cells, n=5). In FIGS. 55 and 56 is shown the phospho-IkBα activation and TNF-α gene expression in PM stimulated with MoA VHCDR3. PM (3×10^6/ml) were stimulated for 1 hr in the presence or absence (NS) of wortmannin (4 nM), MoA VHCDR3, LPS or NC (all 10 micrograms/ml). After incubation, cell lysates were subjected to Western blotting. Membranes were incubated with Abs to pIkBα and IkBα; pIkBα was normalized against IkBα. (FIG. 55)*, P<0.05 (treated versus untreated cells, n=5); †, P<0.05 (wortmannin-treated vs wortmannin-untreated cells, n=5). For testing the expression level of TNF-α gene, PM (1×10^6/ml) were cultured for 1, 6 and 18 hr as above described. After incubation, total RNA was isolated and analyzed for mRNA expression with RT-PCR (FIG. 56). Transcript copy numbers were determined by qPCR using cDNA as a template. Copy numbers were normalized against the copy number of the GADPH gene (B). […]

A. fumigatus 1163 strain = assay: CFU assay against A. fumigatus conidia; format: cell-based, Aspergillus fumigatus
Method: After the incubation period, the conidial suspensions have been plated on Sabouraud dextrose agar, then incubated at 30° C. and observed for CFU enumeration after 48 hours.
After the incubation period, the cell suspensions have been plated on Sabouraud dextrose agar, then incubated at 30° C. and observed for CFU enumeration after 48 hours.

[4] = test system: P. aeruginosa ATCC 25853 strain; assay: CFU assay against P. aeruginosa; format: cell-based, Pseudomonas aeruginosa
C. albicans cells = assay: direct candidacidal activity in vitro (strain not stated); format: cell-based, Candida albicans
Human monocytes = assay: in vitro immunomodulatory activity on human monocytes; format: cell-based; settings: 10 micrograms/ml, 18 hr, ELISA
Method: Human monocytes or PMN (both 10×10^6/ml) were incubated in RPMI 1640 plus 10% FCS for 18 hr or 6 hr respectively in the presence or in the absence (NS) of LPS, negative control (NC) and peptides (all 10 micrograms/ml). After incubation culture supernatants were collected and tested for cytokines production by specific ELISA. […] Monocytes were incubated for 30 minutes in presence or absence (NS) of NC or N10K (both 10 micrograms/ml) or Cytochalasin D (30 μM). After incubation cells have been stimulated for 30 minutes with non opsonized h.i. […] The percentage of phagocytosis (FIG. 18A) and the medium number of yeast particles adhered or ingested by each monocyte (phagocytic index) (FIG. 18B) have been determined by cytofluorimetric analysis. […] PBMC have been incubated 30 minutes in presence or absence (NS) of NC or N10K (both 10 micrograms/ml). After incubation PBMC have been stimulated for 18 h with LPS (10 micrograms/ml) or h.i. […] The levels of IL-12p40 and IL-6 have been evaluated in the supernatants by ELISA Kit.
After incubation culture supernatants were collected and tested for cytokines production by specific ELISA. […]

[5] = test system: C. albicans SC5314 strain
Method: In vitro activity of N10K against C. albicans SC5314 strain. The candidacidal activity of N10K peptide against C. albicans was assessed by a conventional colony forming unit (CFU) assay as previously described (Polonelli et al., 2003; Manfredi et al., 2005). Briefly, cells of C. albicans SC5314 were incubated at 37° C. for 6 hours (hr) in the presence of N10K at the concentration indicated of 20, 12.5 or 6.25 microgram/ml, or in distilled water as control (C). After incubation, cell suspensions were plated on Sabouraud dextrose agar and incubated at 30° C. for 48 hours when CFU were counted (** P<0.01 for N10K treated versus untreated cells, by t test). […]
The alanine-substituted derivatives (asd), defined according to the position held by the alanine-substituted aminoacid, were tested against C. albicans by a conventional colony forming unit (CFU) as previously described (Polonelli et al., 2003). Briefly, cells of C. albicans SC5314 were incubated at 37° C. for 6 hours in the presence of N10K or N10K asd at different scalar concentrations or distilled water as control. After incubation, cell suspensions were plated on Sabouraud dextrose agar and incubated at 30° C. for 48 hours when CFU were counted. Based on several independent replications, the EC50 value of each peptide was calculated by nonlinear regression analysis using Graph Pad Prism 4.01 software, San Diego, Calif., USA. […]
In vitro microbicidal activity of N10K derivative with 2 amino acid substitutions, or 80% sequence identity with native N10K, namely peptide Seq Id. No. 25 was tested against Candida albicans SC5314 as determined by Colony Forming Unit assay.

[6] = peptide 100 micrograms/ml, 5 hours 37° C.

## G Q Y G N L W F A Y (GQYGNLWFAY) [MoA VHCDR3, CDR3 fragment of the H chain of a murine IgM mAb directed to difucosyl human blood group A substance]
[1]; Table III, in vitro
  Activity: cidal
[1]; [6]
  bactericidal activity (CFU): showed bactericidal activity
S. aureus 29213 strain; Table III, in vitro
  Activity: cidal
S. aureus 29213 strain; [6]
  bactericidal activity (CFU): showed bactericidal activity
M. furfur 101 strain; Table III, in vitro
  Activity: cidal
M. furfur 101 strain; peptide 100 micrograms/ml, 6 hours 30° C.
  fungicidal activity (CFU): showed fungicidal activity
C. albicans CA-6 strain; Table III, in vivo, Fungus, for MoAVHCDR3 the wrapped cell reads Indirectly cidal up regulation of TNF-α, TLR-4
  Activity: Indirectly
C. albicans CA-6 strain; intraperitoneally 200 micrograms 4 hr before, 100 micrograms 1 and 2 days after infection, 5, 7 and 12 days after infection, versus negative control mice
  CFU recovery from kidneys: impressive decrease
C. albicans CA-6 strain; intraperitoneally 200 micrograms 4 hr before, 100 micrograms 1 and 2 days after infection, versus untreated or MoA VLCDR3 treated
  survival of infected mice: significant increase in survival
[2]; Table III, in vitro
  Activity: cidal
[2]; [6]
  bactericidal activity (CFU): showed bactericidal activity
[3]; 10 micrograms/ml
  TLR-4 expression: up-regulates TLR-4
[3]; 10 micrograms/ml, 1 hr, Western blotting
  Akt activation (phospho-Akt): induces Akt activation
[3]; 10 micrograms/ml, ELISA
  TNF-α production by PM: stimulate PM to produce TNF-α
[3]; 1 hr post stimulation, 10 micrograms/ml
  TNF-α mRNA: detected
[3]; Table III, in vitro, Immune cells
  Activity (Stimulation of TNF-α, IL-6): Stimulation
A. fumigatus 1163 strain; Table III, in vitro
  Activity: cidal
A. fumigatus 1163 strain; peptide 100 micrograms/ml, 18 hours 30° C.
  fungicidal activity (CFU): showed fungicidal activity
[4]; Table III, in vitro
  Activity: cidal
[4]; [6]
  bactericidal activity (CFU): showed bactericidal activity
C. albicans cells
  activity against C. albicans cells in vitro: ineffective

## NAVSLTCLVK [asd Q2A N10K, N A V S L T C L V K]
Human monocytes
  IL-6 production by human monocytes: strong enhancement
[5]; SC5314, 6 h
  EC50: 2300 nM
[5]; Table IX
  EC50asd/EC50N10K: 2.30
